Test results from patent US8497245B2, “Trypsin-like serine protease inhibitors, their preparation and use as selective inhibitors of the clotting factors IIa and Xa” (The Medicines Company (Leipzig) GmbH, priority 2010, dated 2013).
Structures can show the parent of a compound that is named as a salt. Where two headings read alike, the source gives them in different places.

Legend:
Type in all cases: biochemical
[1] = target: T1, human factor IIa (human alpha-thrombin) (Homo sapiens, UniProt P00734); assay: Inhibition constants for human factor IIa, chromogenic substrate assay; conditions: 25° C., Pefachrome tPA substrate, average of at least three determinations; read-out: Ki h FIIa
T1 construct: human alpha-thrombin from Enzyme Research Laboratories; purchased Enzyme Research Laboratories
Experimental: (§1) The inhibitory effect against the individual purified enzymes was determined in analogy to a previously disclosed method (Stürzebecher et al., J. Med. Chem., 40, 3091-3099 (1997)).
(§2) 200 μL of TBS (0.05 M trishydroxymethylaminomethane; 0.154 M NaCl, 2% ethanol, pH 8.0)
(§3) The release of p-nitroaniline (p-NA, the chromogenic product of the proteolytic activity), was determined by change in absorbance at 405 nm. The equilibrium rates were used to calculate the inhibitor/enzyme dissociation constant (Ki values) by parameter fitting in accordance with the rate equation for competitive inhibition using GraFit (version 4 from Erithacus). The results are reported as Ki values (nanomolar) in table 7 and are the average of at least three determinations.

[2] = target: T2, human Factor Xa (Homo sapiens, UniProt P00742); assay: Inhibition constants for human factor Xa, chromogenic substrate assay; conditions: 25° C., Pefachrome FXa substrate, average of at least three determinations; read-out: Ki h FXa
T2 construct: human Factor Xa from Enzyme Research Laboratories; purchased Enzyme Research Laboratories
T2 sequence (P00742 235-488 limits assumed): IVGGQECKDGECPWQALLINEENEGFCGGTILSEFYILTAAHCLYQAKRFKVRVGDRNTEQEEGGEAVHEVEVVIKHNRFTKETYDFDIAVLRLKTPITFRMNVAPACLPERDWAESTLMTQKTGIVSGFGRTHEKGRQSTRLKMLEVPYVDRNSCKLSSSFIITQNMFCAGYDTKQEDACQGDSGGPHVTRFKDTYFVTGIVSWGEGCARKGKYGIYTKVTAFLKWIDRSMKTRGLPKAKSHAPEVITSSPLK
T2 sequence (P00742 41-179 partner limits assumed): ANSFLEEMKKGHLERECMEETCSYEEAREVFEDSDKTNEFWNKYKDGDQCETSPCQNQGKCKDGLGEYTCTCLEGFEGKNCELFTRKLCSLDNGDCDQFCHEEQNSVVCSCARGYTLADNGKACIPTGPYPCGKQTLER
Experimental: as §1, §2, §3

[3] = target: T3, Human Activated Protein C (h aPC) (Homo sapiens, UniProt P04070); assay: Inhibition of human activated protein C (reference enzyme); conditions: Pefachrome PCa substrate
T3 construct: purchased Enzyme Research Laboratories
T3 sequence (P04070 212-450 limits assumed): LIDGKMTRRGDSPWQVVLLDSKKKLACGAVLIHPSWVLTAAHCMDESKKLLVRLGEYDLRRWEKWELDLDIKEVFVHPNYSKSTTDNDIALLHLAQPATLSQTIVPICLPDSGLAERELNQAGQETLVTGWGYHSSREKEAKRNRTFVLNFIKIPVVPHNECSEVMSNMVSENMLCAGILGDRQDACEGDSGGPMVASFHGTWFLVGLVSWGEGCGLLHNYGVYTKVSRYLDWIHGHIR
T3 sequence (P04070 43-197 partner limits assumed): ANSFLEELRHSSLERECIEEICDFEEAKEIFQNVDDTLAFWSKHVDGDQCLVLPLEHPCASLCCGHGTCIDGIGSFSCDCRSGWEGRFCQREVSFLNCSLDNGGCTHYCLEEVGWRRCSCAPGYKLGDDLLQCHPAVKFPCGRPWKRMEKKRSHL
Experimental: as §1, §3
(§4) Dissociation constants were calculated as described herein.

[4] = target: T4, Human plasmin (h plasmin) (Homo sapiens, UniProt P00747); assay: Inhibition of human plasmin (reference enzyme); conditions: Chromozym PL substrate
T4 construct: purchased Calbiochem
T4 sequence (P00747 581-810 limits assumed): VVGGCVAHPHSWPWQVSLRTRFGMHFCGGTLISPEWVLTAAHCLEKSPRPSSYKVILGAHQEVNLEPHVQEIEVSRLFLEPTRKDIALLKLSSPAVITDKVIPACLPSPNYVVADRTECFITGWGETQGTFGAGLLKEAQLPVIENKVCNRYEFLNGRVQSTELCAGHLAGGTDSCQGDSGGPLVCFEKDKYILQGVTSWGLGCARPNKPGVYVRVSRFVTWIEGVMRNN
T4 sequence (P00747 97-580 partner limits assumed): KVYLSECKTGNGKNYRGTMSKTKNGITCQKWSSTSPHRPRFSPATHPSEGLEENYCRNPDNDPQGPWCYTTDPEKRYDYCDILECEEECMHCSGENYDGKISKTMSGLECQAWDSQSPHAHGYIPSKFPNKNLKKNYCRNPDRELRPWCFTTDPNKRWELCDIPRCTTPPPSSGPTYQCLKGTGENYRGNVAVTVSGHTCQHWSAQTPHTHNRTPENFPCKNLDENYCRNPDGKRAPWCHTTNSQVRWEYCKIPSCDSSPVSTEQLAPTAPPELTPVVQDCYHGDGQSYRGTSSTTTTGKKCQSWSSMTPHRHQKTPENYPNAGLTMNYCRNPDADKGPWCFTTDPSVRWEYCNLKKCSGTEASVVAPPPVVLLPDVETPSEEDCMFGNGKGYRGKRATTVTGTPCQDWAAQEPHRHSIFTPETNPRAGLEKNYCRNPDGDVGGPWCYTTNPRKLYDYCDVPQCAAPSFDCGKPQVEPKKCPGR
Experimental: as §1, §3, §4

[5] = target: T5, Human plasma kallikrein (h PK) (Homo sapiens, UniProt P03952); assay: Inhibition of human plasma kallikrein (reference enzyme); conditions: S2302 substrate
T5 construct: purchased Enzyme Research Laboratories
T5 sequence (P03952 391-638 limits assumed): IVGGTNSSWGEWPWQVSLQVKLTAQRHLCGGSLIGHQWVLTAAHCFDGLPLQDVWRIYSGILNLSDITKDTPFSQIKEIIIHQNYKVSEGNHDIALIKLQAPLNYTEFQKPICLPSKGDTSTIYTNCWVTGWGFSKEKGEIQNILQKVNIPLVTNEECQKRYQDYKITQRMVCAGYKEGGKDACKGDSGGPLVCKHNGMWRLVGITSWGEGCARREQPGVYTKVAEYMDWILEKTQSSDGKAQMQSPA
T5 sequence (P03952 20-390 partner limits assumed): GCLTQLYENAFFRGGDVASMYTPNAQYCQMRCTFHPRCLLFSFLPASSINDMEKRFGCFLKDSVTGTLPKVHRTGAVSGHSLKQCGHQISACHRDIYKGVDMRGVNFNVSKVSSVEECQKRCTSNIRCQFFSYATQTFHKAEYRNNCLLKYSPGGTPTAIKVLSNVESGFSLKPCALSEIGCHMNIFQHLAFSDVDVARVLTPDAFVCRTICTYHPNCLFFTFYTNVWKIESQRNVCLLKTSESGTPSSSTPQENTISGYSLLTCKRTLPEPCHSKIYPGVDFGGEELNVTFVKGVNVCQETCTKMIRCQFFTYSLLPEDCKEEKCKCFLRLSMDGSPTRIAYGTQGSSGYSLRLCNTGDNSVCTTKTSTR
Experimental: as §1, §3, §4

[6] = target: T6, Human tissue-type plasminogen activator (h t-PA) (Homo sapiens, UniProt P00750); assay: Inhibition of human tissue-type plasminogen activator (reference enzyme)
T6 construct: purchased Boehringer Ingelheim Actilyse
T6 sequence (P00750 36-562): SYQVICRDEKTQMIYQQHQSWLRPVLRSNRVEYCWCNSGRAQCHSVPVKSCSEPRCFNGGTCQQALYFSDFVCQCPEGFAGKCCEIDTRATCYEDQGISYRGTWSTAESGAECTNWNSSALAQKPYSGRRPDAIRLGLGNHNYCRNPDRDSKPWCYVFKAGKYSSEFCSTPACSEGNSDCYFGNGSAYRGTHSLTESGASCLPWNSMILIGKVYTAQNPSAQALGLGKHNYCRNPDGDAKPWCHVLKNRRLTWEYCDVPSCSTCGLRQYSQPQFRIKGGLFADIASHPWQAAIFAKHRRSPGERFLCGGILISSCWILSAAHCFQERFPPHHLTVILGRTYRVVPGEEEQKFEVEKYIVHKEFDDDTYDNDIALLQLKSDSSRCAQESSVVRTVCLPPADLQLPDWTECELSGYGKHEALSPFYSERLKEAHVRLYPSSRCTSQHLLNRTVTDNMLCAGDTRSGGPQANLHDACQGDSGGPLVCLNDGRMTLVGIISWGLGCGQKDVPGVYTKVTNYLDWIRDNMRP
Experimental: The equilibrium rates were used to calculate the inhibitor/enzyme dissociation constant (Ki values) by parameter fitting in accordance with the rate equation for competitive inhibition using GraFit (version 4 from Erithacus).
as §4

[7] = target: T7, Human urokinase type plasminogen activator (h u-PA) (Homo sapiens, UniProt P00749); assay: Inhibition of human urokinase type plasminogen activator (reference enzyme); conditions: H-Glu-Gly-Arg-pNA substrate
T7 construct: purchased MEDAC GmbH Urokinase HS medac
Experimental: as §1, §3, §4

[8] = target: T8, Subcomponent "s" of Human Complement Component 1 (h C1s) (Homo sapiens, UniProt P09871); assay: Inhibition of human C1s (reference enzyme); conditions: S-2314 substrate; read-out: Ki h Cls
T8 construct: purchased Calbiochem
T8 sequence (P09871 438-688 limits assumed): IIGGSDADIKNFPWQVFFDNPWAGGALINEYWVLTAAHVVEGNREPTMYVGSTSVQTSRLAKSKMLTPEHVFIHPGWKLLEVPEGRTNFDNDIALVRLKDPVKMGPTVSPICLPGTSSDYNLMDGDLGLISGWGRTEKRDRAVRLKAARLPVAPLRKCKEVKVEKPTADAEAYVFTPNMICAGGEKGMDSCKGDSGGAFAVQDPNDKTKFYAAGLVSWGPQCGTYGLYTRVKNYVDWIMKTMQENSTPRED
T8 sequence (P09871 16-437 partner limits assumed): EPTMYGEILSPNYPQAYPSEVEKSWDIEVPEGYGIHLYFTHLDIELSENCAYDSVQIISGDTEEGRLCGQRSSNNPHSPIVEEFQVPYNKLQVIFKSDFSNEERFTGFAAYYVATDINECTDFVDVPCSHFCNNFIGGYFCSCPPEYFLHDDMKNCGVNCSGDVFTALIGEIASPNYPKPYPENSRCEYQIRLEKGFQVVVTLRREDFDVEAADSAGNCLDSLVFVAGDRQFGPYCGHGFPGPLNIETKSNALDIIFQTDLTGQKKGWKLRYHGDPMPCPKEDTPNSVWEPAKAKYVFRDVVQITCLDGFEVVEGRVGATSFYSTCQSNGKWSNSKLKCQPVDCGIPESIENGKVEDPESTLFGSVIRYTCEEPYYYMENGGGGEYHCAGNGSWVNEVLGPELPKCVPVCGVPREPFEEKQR
Experimental: as §1, §3, §4

[9] = target: T9, Subcomponent "r" of Human Complement Component 1 (h C1r) (Homo sapiens, UniProt P00736); assay: Inhibition of human C1r (reference enzyme); conditions: S-2314 substrate; read-out: Ki h Clr
T9 construct: purchased Calbiochem
T9 sequence (P00736 464-705 limits assumed): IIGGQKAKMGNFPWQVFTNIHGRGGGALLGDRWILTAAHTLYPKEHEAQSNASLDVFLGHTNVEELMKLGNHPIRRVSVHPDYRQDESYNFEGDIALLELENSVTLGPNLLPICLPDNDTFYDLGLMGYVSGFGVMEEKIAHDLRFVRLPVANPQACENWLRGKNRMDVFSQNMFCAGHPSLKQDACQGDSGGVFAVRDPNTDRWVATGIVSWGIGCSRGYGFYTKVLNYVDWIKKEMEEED
T9 sequence (P00736 18-463 partner limits assumed): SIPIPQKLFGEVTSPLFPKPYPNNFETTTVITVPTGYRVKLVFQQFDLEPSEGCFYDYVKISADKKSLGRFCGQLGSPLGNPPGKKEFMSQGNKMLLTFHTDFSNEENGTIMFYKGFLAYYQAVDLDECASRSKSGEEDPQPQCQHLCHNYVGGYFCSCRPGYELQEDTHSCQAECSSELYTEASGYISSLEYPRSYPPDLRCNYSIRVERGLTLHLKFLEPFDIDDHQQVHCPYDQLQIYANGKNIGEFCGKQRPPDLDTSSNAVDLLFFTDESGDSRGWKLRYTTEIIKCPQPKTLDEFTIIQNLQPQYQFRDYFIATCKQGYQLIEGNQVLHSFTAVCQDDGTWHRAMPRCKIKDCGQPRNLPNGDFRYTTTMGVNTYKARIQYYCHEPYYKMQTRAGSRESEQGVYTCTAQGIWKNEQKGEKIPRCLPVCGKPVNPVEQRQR
Experimental: as §1, §3, §4

[10] = target: T10, Human urinary kallikrein (h uKK) (Homo sapiens, UniProt P06870); assay: Inhibition of human urinary kallikrein (reference enzyme); conditions: S-2266 substrate
T10 construct: purchased Lee Biosolutions
T10 sequence (P06870 25-262): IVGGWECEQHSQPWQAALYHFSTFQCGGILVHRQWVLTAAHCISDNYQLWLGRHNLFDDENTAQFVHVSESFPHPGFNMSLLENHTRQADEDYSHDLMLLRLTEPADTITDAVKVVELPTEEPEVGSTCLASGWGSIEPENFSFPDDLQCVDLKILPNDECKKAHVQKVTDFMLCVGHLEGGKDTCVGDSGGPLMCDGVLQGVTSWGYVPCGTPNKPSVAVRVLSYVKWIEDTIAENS
Experimental: as §1, §3, §4

[11] = Pefachrome tPA substrate, read-out: Ki h t-PA

Ki [1] | Ki [2] | Ki [3] | Ki [4] | Ki [5] | Ki [6, 11] | Ki [7] | Ki [8] | Ki [9] | Ki [10] | Ki [6] | SMILES
0.00043 µM | 1.1 nM | > 100 µM | > 28 µM | 1.86 µM | > 20 µM | > 40 µM | > 80 µM | > 200 µM | > 60 µM |  | NCc1ccc(Cl)cc1CNC(=O)[C@@H]1CCCN1C(=O)[C@@H](CCC(=O)N1CCOCC1)NS(=O)(=O)Cc1ccccc1 [Compound 2.1, Bzls-D-Glu(morpholino)-L-Pro-Amb(2-AMe-5-Cl)×1 TFA]
0.0031 µM | 23 nM | > 90 µM | > 10 µM | 4.46 µM | > 100 µM | > 50 µM | > 100 µM | > 50 µM | > 10 µM |  | CC(=O)N1CCC(N(C)C(=O)C[C@@H](NS(=O)(=O)Cc2ccccc2)C(=O)N2CCC[C@H]2C(=O)NCc2cc(Cl)ccc2CN)CC1 [Compound 2.2]
0.003 µM | 23 nM | > 10 µM | > 100 µM | 5.31 µM |  | > 100 µM | > 20 µM | > 100 µM | > 50 µM | > 50 µM | CN(C(=O)C[C@@H](NS(=O)(=O)Cc1ccccc1)C(=O)N1CCC[C@H]1C(=O)NCc1cc(Cl)ccc1CN)C1CCNCC1 [Compound 2.3]
0.00056 µM | 1.3 nM | > 10 µM | > 20 µM | 0.262 µM | > 100 µM | > 40 µM | > 25 µM | > 10 µM | > 50 µM |  | CN(C(=O)C[C@@H](NS(=O)(=O)Cc1ccccc1)C(=O)N1CCC[C@H]1C(=O)NCc1cc(Cl)ccc1CN)C1CCOCC1 [Compound 2.4]
0.018 µM | 2.8 nM | > 20 µM | > 10 µM | 0.639 µM | 9.27 µM | > 100 µM | > 20 µM | > 100 µM | > 100 µM |  | NCc1ccc(Cl)cc1CNC(=O)[C@@H]1C[C@@H](N)CN1C(=O)[C@@H](CC(=O)N1CCNCC1)NS(=O)(=O)Cc1ccccc1 [Compound 2.5]
0.00018 µM | 0.049 nM | > 100 µM | 8.75 µM | 0.335 µM | 5.05 µM | > 30 µM | > 20 µM | > 20 µM | > 50 µM |  | NCc1ccc(Cl)cc1CNC(=O)[C@@H]1C[C@H](N)CN1C(=O)[C@@H](CC(=O)N1CCCCC1)NS(=O)(=O)Cc1ccccc1 [Compound 2.6]
0.00057 µM | 0.18 nM | > 50 µM | 11.9 µM | 0.322 µM | 15.3 µM | > 50 µM | > 30 µM | > 20 µM | > 50 µM |  | NCc1ccc(Cl)cc1CNC(=O)[C@@H]1C[C@@H](N)CN1C(=O)[C@@H](CC(=O)N1CCCCC1)NS(=O)(=O)Cc1ccccc1 [Compound 2.7]
0.00021 µM | 0.13 nM | > 40 µM | > 20 µM | 0.337 µM | > 10 µM | > 80 µM | > 50 µM | > 100 µM | > 100 µM |  | NCc1ccc(Cl)cc1CNC(=O)[C@@H]1CCCN1C(=O)[C@@H](CC(=O)N1CCCC1)NS(=O)(=O)Cc1ccccc1 [Compound 2.8]
